Measurements taken from the supplement of paper PMC10307832.

Columns and labels:
Test in all cases: relative viability (nuclei count vs DMSO), 5 days (fraction); higher = more cells survive
VX-702 + Olaparib = compound: NC(=O)c1ccc(N(C(N)=O)c2c(F)cccc2F)nc1-c1ccc(F)cc1F [VX-702] + O=C(c1cc(Cc2n[nH]c(=O)c3ccccc23)ccc1F)N1CCN(C(=O)C2CC2)CC1 [Olaparib] (partner 8 µM)
Outline: (§1)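 Five library-drug doses in √10 steps were combined with a fixed anchor-drug dose, or a single drug was given alone, by pin tool to lung cancer cell lines in 1536-well plates the day after seeding. Nuclei were stained and counted after 5 days. Relative viability is the nuclei count in treated wells over that in vehicle wells, taken as the median of duplicate plates.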

Dabrafenib + Pemetrexed = compound: CC(C)(C)c1nc(-c2cccc(NS(=O)(=O)c3c(F)cccc3F)c2F)c(-c2ccnc(N)n2)s1 [Dabrafenib] + Nc1nc2[nH]cc(CCc3ccc(C(=O)N[C@@H](CCC(=O)O)C(=O)O)cc3)c2c(=O)[nH]1 [Pemetrexed] (partner 0.2 µM)
Outline: as §1

VX-702 + OSI-027 = compound: NC(=O)c1ccc(N(C(N)=O)c2c(F)cccc2F)nc1-c1ccc(F)cc1F [VX-702] + COc1cccc2cc(-c3nc([C@H]4CC[C@H](C(=O)O)CC4)n4ncnc(N)c34)[nH]c12 [OSI-027] (partner 0.5 µM)
Outline: as §1

VX-702 + Decitabine = compound: NC(=O)c1ccc(N(C(N)=O)c2c(F)cccc2F)nc1-c1ccc(F)cc1F [VX-702] + Nc1ncn([C@H]2C[C@H](O)[C@@H](CO)O2)c(=O)n1 [Decitabine] (partner 2 µM)
Outline: as §1

Cell Line | relative viability (VX-702 + Olaparib; first compound 0.02 µM) | relative viability (VX-702 + Olaparib; first compound 0.2 µM) | relative viability (VX-702 + Olaparib; first compound 0.6325 µM) | relative viability (VX-702 + Olaparib; first compound 2 µM) | relative viability (Dabrafenib + Pemetrexed; first compound 0.003 µM) | relative viability (Dabrafenib + Pemetrexed; first compound 0.009487 µM) | relative viability (Dabrafenib + Pemetrexed; first compound 0.03 µM) | relative viability (Dabrafenib + Pemetrexed; first compound 0.09487 µM) | relative viability (Dabrafenib + Pemetrexed; first compound 0.3 µM) | relative viability (VX-702 + OSI-027; first compound 0.02 µM) | relative viability (VX-702 + OSI-027; first compound 0.2 µM) | relative viability (VX-702 + OSI-027; first compound 0.6325 µM) | relative viability (VX-702 + OSI-027; first compound 2 µM) | relative viability (VX-702 + Decitabine; first compound 0.02 µM) | relative viability (VX-702 + Decitabine; first compound 0.2 µM) | relative viability (VX-702 + Decitabine; first compound 0.6325 µM) | relative viability (VX-702 + Decitabine; first compound 2 µM)
IA-LM | 0.833 | 0.841 | 0.994 | 0.937 | – | – | – | – | – | – | – | – | – | – | – | – | –
LC-2-ad | 0.724 | 0.678 | 0.799 | 0.776 | 0.271 | 0.283 | 0.25 | 0.269 | 0.286 | 0.844 | 0.814 | 0.999 | 0.949 | 0.849 | 0.807 | 0.821 | 0.776
LCLC-97TM1 | 0.428 | 0.307 | 0.502 | 0.69 | – | 0.198 | 0.198 | 0.124 | 0.139 | 0.424 | 0.595 | 0.37 | 0.404 | 0.241 | 0.232 | 0.232 | 0.228
LCLC-103H | 0.788 | 0.757 | 0.795 | 0.817 | 0.473 | 0.455 | 0.532 | 0.42 | 0.4 | 0.49 | 0.485 | 0.417 | 0.458 | 0.733 | 0.735 | 0.685 | 0.746
LK-2 | 0.68 | 0.601 | 0.555 | 0.751 | 0.249 | 0.239 | – | 0.253 | 0.301 | 0.21 | 0.211 | 0.167 | 0.183 | 0.26 | 0.329 | 0.218 | 0.318
LOU-NH91 | 0.888 | 0.891 | 0.911 | 0.881 | – | 0.34 | 0.403 | 0.409 | 0.409 | 0.767 | 0.734 | 0.751 | 0.528 | 0.837 | 0.832 | 0.815 | 0.766
LU99A | 0.265 | 0.233 | 0.255 | 0.228 | 0.25 | 0.192 | 0.181 | 0.161 | 0.183 | 0.339 | 0.323 | 0.312 | 0.283 | 0.93 | 0.869 | 0.93 | 0.872
LXF-289 | 1.08 | 1.07 | 1.06 | 1.1 | 0.751 | 0.872 | 0.965 | 0.813 | 1.08 | 0.786 | 0.784 | 0.772 | 0.683 | 0.313 | 0.403 | 0.381 | 0.357
NCI-H23 | 0.372 | 0.254 | 0.329 | 0.402 | – | 0.67 | 0.504 | 0.7 | 0.597 | 0.604 | 0.643 | 0.688 | 0.559 | 0.322 | 0.35 | 0.321 | 0.317
NCI-H322M | 1.26 | 0.839 | 0.806 | 0.929 | – | 0.711 | – | 0.602 | 0.572 | 0.567 | 0.517 | 0.566 | 0.62 | 0.67 | 0.668 | 0.765 | 0.745
NCI-H358 | 0.628 | 0.526 | 0.561 | 0.634 | 0.169 | 0.166 | 0.152 | 0.209 | 0.163 | 0.867 | 0.845 | 0.711 | 0.794 | 0.204 | 0.333 | 0.244 | 0.223
NCI-H441 | 0.567 | 0.553 | 0.572 | 0.661 | – | 0.232 | 0.255 | 0.259 | 0.263 | 0.564 | 0.547 | 0.5 | 0.544 | 0.238 | 0.258 | 0.251 | 0.212
NCI-H460 | 0.428 | 0.438 | 0.548 | 0.26 | 0.0599 | 0.0868 | 0.0634 | 0.0648 | 0.0684 | 0.712 | 0.644 | 0.693 | 0.55 | 0.522 | 0.494 | 0.599 | 0.469
NCI-H520 | 0.358 | 0.305 | 0.379 | 0.289 | 0.697 | 0.6 | 0.625 | 0.669 | 0.652 | 0.321 | 0.287 | 0.268 | 0.23 | 0.571 | 0.513 | 0.444 | 0.418
NCI-H522 | 0.754 | 0.678 | 0.667 | 0.619 | – | 1.08 | 0.833 | 1.07 | 0.989 | 0.649 | 0.718 | 0.681 | 0.747 | 0.684 | 0.775 | 0.646 | 0.753
NCI-H596 | 0.66 | 0.714 | 0.898 | 0.685 | – | 0.492 | 0.44 | 0.579 | 0.469 | 0.807 | 0.737 | 0.797 | 0.823 | 1.3 | 1.55 | 1.15 | 1.16
NCI-H647 | 0.752 | 0.509 | 0.427 | 0.744 | 0.187 | 0.186 | 0.167 | 0.159 | 0.16 | 0.719 | 0.997 | 0.709 | 0.662 | 0.475 | 0.383 | 0.335 | 0.306
NCI-H727 | 0.67 | 0.789 | 0.72 | 0.555 | – | – | – | – | – | 0.721 | 0.614 | 0.543 | 0.642 | 0.827 | 0.914 | 0.753 | 0.822
NCI-H1299 | 0.982 | 0.924 | 0.937 | 0.862 | – | – | – | – | – | – | – | – | – | – | – | – | –
NCI-H1563 | – | – | – | – | 0.667 | 0.836 | 0.591 | 0.822 | 0.744 | 0.77 | 0.748 | 0.738 | 0.722 | – | – | – | –
NCI-H1623 | – | – | – | – | – | – | – | – | – | 0.403 | 0.406 | 0.424 | 0.43 | – | – | – | –
NCI-H1703 | 0.415 | 0.361 | 0.315 | 0.47 | – | – | – | – | – | – | – | – | – | – | – | – | –
NCI-H2228 | 0.866 | 0.794 | 0.754 | 0.864 | 0.342 | 0.415 | 0.357 | 0.332 | 0.321 | 0.649 | 0.514 | 0.534 | 0.683 | – | – | – | –
